# Reference: PubChem BioAssay AID2060601 (Molecular Pharmacology Branch, DTP, NCI, 2025)
# Tested on: 874868-142-R-J2-PDC complex spheroids, growth % test/control
# Assay: Anticancer human tumor 874868-142-R-J2-PDC patient-derived head and neck squamous carcinoma cell line growth inhibition [CLK]
# Settings: for IC50: curve of first compound; for viability, T/C: stronger effect = lower value
# In short: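 Patient-derived tumor cells grown as complex spheroids with HUVEC endothelial cells and mesenchymal stem cells, treated with drug combinations. Concentrations descend in half-log steps from near clinical Cmax, or from 10 microM if Cmax unknown.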
# [1] = second compound 0.0316 µM, first compound 0.0316 µM
# [2] = second compound 0.0316 µM, first compound 0.1 µM
# [3] = second compound 0.1 µM, first compound 0.0316 µM
# [4] = second compound 0.1 µM, first compound 0.1 µM
# [5] = second compound 0.316 µM, first compound 0.0316 µM
# [6] = second compound 0.316 µM, first compound 0.1 µM
# [7] = second compound 1 µM, first compound 0.0316 µM
# [8] = second compound 1 µM, first compound 0.1 µM
# [9] = second compound 3.16 µM, first compound 0.0316 µM
# [10] = second compound 3.16 µM, first compound 0.1 µM
# [11] = second compound 10 µM, first compound 0.0316 µM
# [12] = second compound 10 µM, first compound 0.1 µM
# [13] = second compound 0.0316 µM, first compound 0.316 µM
# [14] = second compound 0.0316 µM, first compound 1 µM
# [15] = second compound 0.0316 µM, first compound 3.16 µM
# [16] = second compound 0.0316 µM, first compound 10 µM
# [17] = second compound 0.1 µM, first compound 0.316 µM
# [18] = second compound 0.1 µM, first compound 1 µM
# [19] = second compound 0.1 µM, first compound 3.16 µM
# [20] = second compound 0.1 µM, first compound 10 µM
# [21] = second compound 0.316 µM, first compound 0.316 µM
# [22] = second compound 0.316 µM, first compound 1 µM
# [23] = second compound 0.316 µM, first compound 3.16 µM
# [24] = second compound 0.316 µM, first compound 10 µM
# [25] = second compound 1 µM, first compound 0.316 µM
# [26] = second compound 1 µM, first compound 1 µM
# [27] = second compound 1 µM, first compound 3.16 µM
# [28] = second compound 1 µM, first compound 10 µM
# [29] = second compound 3.16 µM, first compound 0.316 µM
# [30] = second compound 3.16 µM, first compound 1 µM
# [31] = second compound 3.16 µM, first compound 3.16 µM
# [32] = second compound 3.16 µM, first compound 10 µM
# [33] = second compound 10 µM, first compound 0.316 µM
# [34] = second compound 10 µM, first compound 1 µM
# [35] = second compound 10 µM, first compound 3.16 µM
# [36] = second compound 10 µM, first compound 10 µM
# 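Note: spheroids exposed to the compounds for 7 days.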
# 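Throughout, for viability, T/C: 100% = DMSO vehicle control viability.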
compound,measurement,setting,value
Cn1ncnc1[C@H]1c2n[nH]c(=O)c3cc(F)cc(c23)N[C@@H]1c1ccc(F)cc1 + CNC(=O)c1ccc(Nc2nc(OC3CCCC3)c3c(-c4ccc5nc(C)oc5c4)c[nH]c3n2)c(OC)c1,IC50,second compound 0.0316 µM,> 100 nM
same,IC50,second compound 0.1 µM,> 100 nM
same,IC50,second compound 0.316 µM,> 100 nM
same,IC50,second compound 1 µM,< 0.316 nM
same,IC50,second compound 3.16 µM,< 0.316 nM
same,IC50,second compound 10 µM,< 0.316 nM
same,"viability, T/C","second compound 0.0316 µM, first compound 0.000316 µM",97.6%
same,"viability, T/C","second compound 0.0316 µM, first compound 0.001 µM",92.7%
same,"viability, T/C","second compound 0.0316 µM, first compound 0.00316 µM",102%
same,"viability, T/C","second compound 0.0316 µM, first compound 0.01 µM",94.6%
same,"viability, T/C",[1],85.1%
same,"viability, T/C",[2],73.7%
same,"viability, T/C","second compound 0.1 µM, first compound 0.000316 µM",85%
same,"viability, T/C","second compound 0.1 µM, first compound 0.001 µM",68.8%
same,"viability, T/C","second compound 0.1 µM, first compound 0.00316 µM",90.1%
same,"viability, T/C","second compound 0.1 µM, first compound 0.01 µM",79.2%
same,"viability, T/C",[3],73.5%
same,"viability, T/C",[4],66.6%
same,"viability, T/C","second compound 0.316 µM, first compound 0.000316 µM",61.4%
same,"viability, T/C","second compound 0.316 µM, first compound 0.001 µM",54.3%
same,"viability, T/C","second compound 0.316 µM, first compound 0.00316 µM",51.5%
same,"viability, T/C","second compound 0.316 µM, first compound 0.01 µM",56.3%
same,"viability, T/C",[5],59.7%
same,"viability, T/C",[6],46.3%
same,"viability, T/C","second compound 1 µM, first compound 0.000316 µM",42.7%
same,"viability, T/C","second compound 1 µM, first compound 0.001 µM",50.8%
same,"viability, T/C","second compound 1 µM, first compound 0.00316 µM",40.6%
same,"viability, T/C","second compound 1 µM, first compound 0.01 µM",36.9%
same,"viability, T/C",[7],40.8%
same,"viability, T/C",[8],40.7%
same,"viability, T/C","second compound 3.16 µM, first compound 0.000316 µM",44.5%
same,"viability, T/C","second compound 3.16 µM, first compound 0.001 µM",36.2%
same,"viability, T/C","second compound 3.16 µM, first compound 0.00316 µM",39.2%
same,"viability, T/C","second compound 3.16 µM, first compound 0.01 µM",39%
same,"viability, T/C",[9],44%
same,"viability, T/C",[10],34%
same,"viability, T/C","second compound 10 µM, first compound 0.000316 µM",44%
same,"viability, T/C","second compound 10 µM, first compound 0.001 µM",40.5%
same,"viability, T/C","second compound 10 µM, first compound 0.00316 µM",39.4%
same,"viability, T/C","second compound 10 µM, first compound 0.01 µM",39.5%
same,"viability, T/C",[11],47.6%
same,"viability, T/C",[12],31%
Nc1ccn(C2OC(CO)C(O)C2(F)F)c(=O)n1 (stereo unspecified) + CNC(=O)c1ccc(Nc2nc(OC3CCCC3)c3c(-c4ccc5nc(C)oc5c4)c[nH]c3n2)c(OC)c1,IC50,second compound 0.0316 µM,646 nM
same,IC50,second compound 0.1 µM,518 nM
same,IC50,second compound 0.316 µM,162 nM
same,IC50,second compound 1 µM,< 31.6 nM
same,IC50,second compound 3.16 µM,< 31.6 nM
same,IC50,second compound 10 µM,< 31.6 nM
same,"viability, T/C",[1],108%
same,"viability, T/C",[2],80.2%
same,"viability, T/C",[13],56.3%
same,"viability, T/C",[14],46.7%
same,"viability, T/C",[15],41.6%
same,"viability, T/C",[16],43.5%
same,"viability, T/C",[3],80.6%
same,"viability, T/C",[4],97.9%
same,"viability, T/C",[17],57.8%
same,"viability, T/C",[18],42.3%
same,"viability, T/C",[19],42.9%
same,"viability, T/C",[20],33.8%
same,"viability, T/C",[5],56.4%
same,"viability, T/C",[6],53.7%
same,"viability, T/C",[21],48%
same,"viability, T/C",[22],35.3%
same,"viability, T/C",[23],35%
same,"viability, T/C",[24],22.3%
same,"viability, T/C",[7],42.9%
same,"viability, T/C",[8],37.5%
same,"viability, T/C",[25],33.6%
same,"viability, T/C",[26],23.1%
same,"viability, T/C",[27],26.2%
same,"viability, T/C",[28],18%
same,"viability, T/C",[9],40%
same,"viability, T/C",[10],42.1%
same,"viability, T/C",[29],30.3%
same,"viability, T/C",[30],23.8%
same,"viability, T/C",[31],22.7%
same,"viability, T/C",[32],16.5%
same,"viability, T/C",[11],39.2%
same,"viability, T/C",[12],36.8%
same,"viability, T/C",[33],33.7%
same,"viability, T/C",[34],25.5%
same,"viability, T/C",[35],19.4%
same,"viability, T/C",[36],23.1%
O=C(c1cc(Cc2n[nH]c(=O)c3ccccc23)ccc1F)N1CCN(C(=O)C2CC2)CC1 + CNC(=O)c1ccc(Nc2nc(OC3CCCC3)c3c(-c4ccc5nc(C)oc5c4)c[nH]c3n2)c(OC)c1,IC50,second compound 0.0316 µM,> 10000 nM
same,IC50,second compound 0.1 µM,> 10000 nM
same,IC50,second compound 0.316 µM,> 10000 nM
same,IC50,second compound 1 µM,< 31.6 nM
same,IC50,second compound 3.16 µM,< 31.6 nM
same,IC50,second compound 10 µM,< 31.6 nM
same,"viability, T/C",[1],86.5%
same,"viability, T/C",[2],90.7%
same,"viability, T/C",[13],115%
same,"viability, T/C",[14],81.4%
same,"viability, T/C",[15],91.8%
same,"viability, T/C",[16],75.6%
same,"viability, T/C",[3],98.9%
same,"viability, T/C",[4],76.5%
same,"viability, T/C",[17],93.7%
same,"viability, T/C",[18],87%
same,"viability, T/C",[19],70.7%
same,"viability, T/C",[20],73.4%
same,"viability, T/C",[5],54%
same,"viability, T/C",[6],54.5%
same,"viability, T/C",[21],60.8%
same,"viability, T/C",[22],45.9%
same,"viability, T/C",[23],61%
same,"viability, T/C",[24],55.6%
same,"viability, T/C",[7],42.2%
same,"viability, T/C",[8],40.9%
same,"viability, T/C",[25],42.3%
same,"viability, T/C",[26],41.1%
same,"viability, T/C",[27],39.7%
same,"viability, T/C",[28],41.4%
same,"viability, T/C",[9],41.4%
same,"viability, T/C",[10],48.8%
same,"viability, T/C",[29],48.8%
same,"viability, T/C",[30],41%
same,"viability, T/C",[31],50.3%
same,"viability, T/C",[32],46.2%
same,"viability, T/C",[11],38.3%
same,"viability, T/C",[12],48.4%
same,"viability, T/C",[33],42.7%
same,"viability, T/C",[34],41.8%
same,"viability, T/C",[35],43.3%
same,"viability, T/C",[36],42.2%
